The values that follow come from patent publication US7491722B2, “Pyridazin-3(2H)-one derivatives” (Laboratorios Almirall S.A., priority 2002, dated 2009).

For the first data set, the system named is PDE4. The data set can be described thus: PDE4 Assay Procedure ([3H]-cAMP SPA). Format: biochemical. The procedure:
Compounds to be tested were resuspended in DMSO at a stock concentration of 1 mM. The compounds were tested at different concentrations varying from 10 μM to 10 pM to calculate an IC50. These dilutions were done in 96-well plates. In some cases, plates containing diluted compounds were frozen before being assayed. In these cases, the plates were thawed at room temperature and stirred for 15 minutes.
Ten microliters of the diluted compounds were poured into a “low binding” assay plate. Eighty microliters of reaction mixture containing 50 mM Tris pH 7.5, 8.3 mM MgCl2, 1.7 mM EGTA, and 15 nM [3H]-cAMP were added to each well. The reaction was initiated by adding ten microliters of a solution containing PDE4. The plate was then incubated under stirring for 1 hour at room temperature. After incubation the reaction was stopped with 50 microlitres of SPA beads, and the reaction was allowed to incubate for another 20 minutes at room temperature before measuring radioactivity using standard instrumentation.
The reaction mixture was prepared by adding 90 ml of H2O to 10 ml of 10× assay buffer (500 mM Tris pH 7.5, 8.3 mM MgCl2, 17 mM EGTA), and 40 microlitres 1 μCi/μL [3H]-cAMP. SPA beads solution was prepared by adding 500 mg to 28 ml H2O for a final concentration of 20 mg/ml beads and 18 mM zinc sulphate.
In turn, `CCn1nc(-c2ccncc2)c(C(C)=O)c(Nc2ccccc2C)c1=O` [Example 33, 5-Acetyl-2-ethyl-4-[(2-methylphenyl)amino]-6-pyridin-4-ylpyridazin-3(2H)-one] displayed an IC50 of 0.11 nM.

`CCn1nc(-c2cccs2)c(C(C)=O)c(Nc2cccc(Cl)c2)c1=O` [Example 52, 5-Acetyl-4-[(3-chlorophenyl)amino]-2-ethyl-6-thien-2-ylpyridazin-3(2H)-one] had an IC50 of 5.2 nM.

`CCn1nc(-c2ccncc2)c(C(C)=O)c(Nc2cccc3ccccc23)c1=O` [Example 32, 5-Acetyl-2-ethyl-4-(1-naphthylamino)-6-pyridin-4-ylpyridazin-3(2H)-one] displayed a 50% inhibitory concentration (IC50) of 0.59 nM.

`CC(=O)c1c(-c2cccc(F)c2)nn(CC2CC2)c(=O)c1Nc1cccnc1` [Example 92, 5-Acetyl-2-cyclopropylmethyl-6-(3-fluorophenyl)-4-(pyridin-3-ylamino)-pyridazin-3(2H)-one] came in with a 50% inhibitory concentration (IC50) of 11 nM.

`CCn1nc(-c2ccc(F)cc2)c(C(C)=O)c(Nc2cccnc2)c1=O` [Example 93, 5-Acetyl-6-(4-fluorophenyl)-2-ethyl 4-(pyridin-3-ylamino)-pyridazin-3(2H)-one] returned an IC50 of 8.3 nM.

`CCn1nc(-c2cccnc2)c(C(C)=O)c(Nc2cccc3ccccc23)c1=O` [Example 4, 5-Acetyl-2-ethyl-4-(1-naphthylamino)-6-pyridin-3-ylpyridazin-3(2H)-one] gave an IC50 of 6.8 nM.

With `CC(=O)c1c(-c2cccc(F)c2)nn(C(C)C)c(=O)c1Nc1cccnc1` [Example 91], it took 9.4 nM to reach half-maximal inhibition (IC50).

In the case of `CCn1nc(-c2ccncc2)c(C(C)=O)c(Nc2ccc(C(=O)O)cc2)c1=O` [Example 41, 4-[(5-acetyl-2-ethyl-3-oxo-6-pyridin-4-yl-2,3-dihydropyridazin-4-yl)amino]benzoic acid], the IC50 was determined as 16 nM.

Turning to `CCn1nc(-c2ccccc2)c(C(C)=O)c(Nc2cccc3cnccc23)c1=O` [Example 84, 5-Acetyl-2-ethyl-4-(isoquinolin-5-ylamino)-6-phenylpyridazin-3(2H)-one], the IC50 came to 2.6 nM.

Regarding `CCn1nc(-c2ccncc2)c(C(C)=O)c(Nc2cccc(Cl)c2)c1=O` [Example 31, 5-Acetyl-4-[(3-chlorophenyl)amino]-2-ethyl-6-pyridin-4-ylpyridazin-3(2H)-one], the half-inhibitory concentration (IC50) worked out at 4.5 nM.

Take `CCn1nc(-c2ccccc2)c(C(C)=O)c(Nc2cccc3ncccc23)c1=O` [Example 82, 5-Acetyl-2-ethyl-6-phenyl-4-(quinolin-5-ylamino)pyridazin-3(2H)-one]: the concentration for half-maximal inhibition (IC50) worked out at 0.3 nM.

`CCn1nc(-c2ccccc2)c(C(C)=O)c(Nc2cccnc2)c1=O` [Example 63, 5-Acetyl-2-ethyl-6-phenyl-4-(pyridin-3-ylamino)pyridazin-3(2H)-one] gave an IC50 of 24 nM. This IC50 lies about 80-fold higher than the previous one.

The compound `CCn1nc(-c2cccnc2)c(C(C)=O)c(Nc2cccc(F)c2)c1=O` [Example 1, 5-Acetyl-2-ethyl-4-[(3-fluorophenyl)amino]-6-pyridin-3-ylpyridazin-3(2H)-one] returned an IC50 of 2.3 nM.

Consider `CCn1nc(-c2ccccc2)c(C(C)=O)c(Nc2cccc3cccnc23)c1=O` [Example 67, 5-Acetyl-2-ethyl-6-phenyl(quinolin-8-ylamino)pyridazin-3(2H)-one], for which the IC50 amounted to 10 nM.

As for `CCn1nc(-c2ccccc2)c(C(C)=O)c(Nc2cccc3[nH]ccc23)c1=O` [Example 69, 5-Acetyl-2-ethyl-4-(1H-indol-4-ylamino)-6-phenylpyridazin-3(2H)-one], the midpoint of inhibition, the IC50, lay at 2 nM.

System in the next data set: not given
Test: not given
The compound `CCn1nc(-c2cccc(C)c2)c(C(C)=O)c(Nc2cccc3ncccc23)c1=O` [Example 195, 5-Acetyl-2-ethyl-6-(3-methylphenyl)-4-(quinolin-5-ylamino)pyridazin-3(2H)-one] came in with a melting point of 245 to 246.1 °C.

One may read the IC50 as the concentration at which inhibition is half-maximal. High values mean a need for much substance, low ones inhibition by little substance. Usually melting point stands for the temperature, or range, at which the solid turns liquid.
